# In PubChem BioAssay AID1259426 (Fisher Drug Discovery Resource Center, 2018):
# The source made the active and inactive calls.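 Rule for the calls: active = EC50 under a set limit in control cells lacking the mosquito receptor, marking a fluorescence artifact; inactive = the rest.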
# Biological target: HEK293 Galpha15/GCaMP6s without NPYLR7, calcium fluorescence
# Assay: calcium response in NPYLR7-null HEK293 cells, dose response, counter-screen for mosquito NPYLR7 agonist project, cell-based, HEK293 lacking NPYLR7 (AID 1259426);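 note: potency for a rise in fluorescence over baseline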
row,SMILES,EC50
1,O=C(N=Nc1c(O)[nH]c2ccc(Br)cc12)c1ccccc1Cl,> 20 µM (inactive)
2,CCCCCn1c(=O)c2c(nc3n2CCN3c2cc(C)cc(C)c2)n(C)c1=O,> 20 µM (inactive)
3,COc1cc(NC(=O)N2CC(=O)N3CCc4c(F)cccc4C3C2)cc(OC)c1OC (stereo unspecified),> 20 µM (inactive)
4,O=c1nc2sc3[nH]c(=O)sc3cc-2s1,< 0.039 µM
5,CCN=c1cc2oc3cc(NCC)c(C)cc3c(-c3ccccc3C(=O)OCC)c-2cc1C,0.0953 µM
6,CC(C)NC[C@@H](O)c1ccc(O)c(O)c1,1.37 µM
7,O=C1C(=Cc2ccc(OC(F)F)cc2OC(F)F)Oc2cc(O)ccc21,> 20 µM (inactive)

# Second part, the molecule after the results:
row,EC50,SMILES
1,> 20 µM (inactive),O=C1NC(=S)SC1=Cc1cc(O)c(O)c(Cl)c1
2,> 20 µM (inactive),Oc1ccc(-c2onc3ccc(Cl)cc23)cc1
3,2.69 µM,O=C(O)CCN1C(=O)/C(=C/c2ccc(O)cc2)SC1=S
4,3.9 µM,CCN1/C(=C/C2=CC(=O)CC(C)(C)C2)Sc2ccccc21
